Patent publication US20080287491A1, “Tetrahydroquinoline Derivative for Treating Nicotine Craving” (priority 2003, published 2008)
“Also recorded” adds a separate entry of the source. Counter-ions that a name gives are not always drawn.

Tests used:
[1] = system: nicotine craving in smokers abstinent for 3 days from cigarettes; experiment: QSU-Brief nicotine craving questionnaire, single-dose enforced abstinence study; type: in vivo, human; conditions: single dose 120 mg iv
Method: The ability of the compound of formula (I) or pharmaceutically acceptable salts thereof to reduce nicotine craving in smokers was measured by means of self-administered questionnaires on Smoking Craving/Urge-Brief (QSU-Brief), as described by Tiffany S T, & Christen A G Cox L S, Nicotine and Tobacco Research, 3: 7-16, 2001. The QSU-Brief is a specific craving scale that consists of 10 items scored on a scale from 1 to 7. The higher average score corresponds to the higher intensity of nicotine craving. The QSU-Brief has 2 factors: factor 1 refers to the anticipation of pleasure from smoke and factor 2 refers to anticipation of relief from negative affects of abstinence. The study investigated nicotine craving in smokers abstinent for 3 days from cigarettes (enforced abstinence model) receiving either a single dose 120 mg iv of the compound of formula (I) as meglumine salt (Compound) or a single dose of placebo. Self-administered questionnaires (QSU-Brief), were administered at pre-dose and 3, 6 and 12 hours post dose to evaluate craving.

[2] = system: nicotine craving in smokers abstinent for 72 hours from cigarettes; experiment: QSU-Brief nicotine craving questionnaire, repeated-dose three-period crossover enforced abstinence study; type: in vivo, human; conditions: 31 smoker volunteers; 120 mg/day intravenously for 7 days; 72 hours of abstinence from Day 5; FIG. 1
Method: The ability of the compound of formula (I) or pharmaceutically acceptable salts thereof to reduce nicotine craving in smokers was measured by means of self-administered questionnaires on Smoking Craving/Urge-Brief (QSU-Brief), as described by Tiffany S T, & Christen A G Cox L S, Nicotine and Tobacco Research, 3: 7-16, 2001. The QSU-Brief is a specific craving scale that consists of 10 items scored on a scale from 1 to 7. The higher average score corresponds to the higher intensity of nicotine craving. The QSU-Brief has 2 factors: factor 1 refers to the anticipation of pleasure from smoke and factor 2 refers to anticipation of relief from negative affects of abstinence. A further study investigated nicotine craving in smokers abstinent for 72 hours from cigarettes (enforced abstinence model) receiving either repeated administrations of the compound of formula (I) as meglumine salt (Compound) or placebo. […] Each subject was exposed to 3 different experimental conditions: 1) Compound (120 mg/day) was administered intravenously for 7 days starting on Day 1 and quitted smoking abruptly on Day 5 for 72 hours (i.e. non-smoking period;) 2) Placebo was administered intravenously for 7 days starting on Day 1 and quitted smoking abruptly on Day 5 for 72 hours (i.e. non-smoking period;) 3) allowed to smoke for 7 consecutive days (i.e. free smoking period). […]

O=C(O)[C@H]1C/C(=C2/CCN(c3ccccc3)C2=O)c2ccc(Cl)cc2N1 [Compound, (2R,4E)-7-chloro-4-(2-oxo-1-phenyl-3-pyrrolidinylidene)-1,2,3,4-tetrahydro-2-quinolinecarboxylic acid, (2R,3R,4R,5S)-6-methylamino-hexane-1,2,3,4,5-pentanol (meglumine) salt (form 2)]
QSU-Brief: Craving Factor 2 (average during abstinence) ([1]; QSU-Brief items scored 1 to 7, pre-dose and 3, 6 and 12 hours post dose, placebo 4.0): 3.6
Average craving factor 2 compared with placebo ([1]; versus abstinent smokers receiving placebo): significant average lower craving factor 2
Nicotine craving level (QSU-Brief) compared with placebo [2]: showed reduction in nicotine craving; also recorded: reduced the nicotine craving level
